Our source for the IC50 and EC50 values is patent publication US9359349B2, “Substituted quinazolines as kinase inhibitors” (Intellikine LLC, priority 2007, dated 2016).

Read-outs that look alike come from different tables or passages of the source.

One assay concerns the target T1, PI3K δ (p110δ/p85α) (Homo sapiens, UniProt O00329).
T1 construct: purchased Upstate
Nature of the assay: PI3K δ (p110δ/p85α) inhibition assay. It is filed as biochemical. Here is the method:
(§1) IC50 values are measured using either a standard TLC assay for lipid kinase activity (described below) or a high-throughput membrane capture assay. Kinase reactions are performed by preparing a reaction mixture containing kinase, inhibitor (2% DMSO final concentration), buffer (25 mM HEPES, pH 7.4, 10 mM MgCl2), and freshly sonicated phosphatidylinositol (100 μg/ml). Reactions are initiated by the addition of ATP containing 10 μCi of γ-32P-ATP to a final concentration 10 or 100 μM and allowed to proceed for 5 minutes at room temperature. For TLC analysis, reactions are then terminated by the addition of 105 μl 1N HCl followed by 160 μl CHCl3:MeOH (1:1). The biphasic mixture is vortexed, briefly centrifuged, and the organic phase is transferred to a new tube using a gel loading pipette tip precoated with CHCl3. This extract is spotted on TLC plates and developed for 3-4 hours in a 65:35 solution of n-propanol: 1M acetic acid. The TLC plates are then dried, exposed to a phosphorimager screen (Storm, Amersham), and quantitated.
(§2) Other commercial kits or systems for assaying PI3-K activities are avaiable. The commercially available kits or systems can be used to screen for inhibitors and/or agonists of PI3-Ks including but not limited to PI 3-Kinase α, β, δ, and γ. Anr exemplary system is PI 3-Kinase (human) HTRF™ Assay from Upstate. […] Briefly, the assay is a time resolved FRET assay that indirectly measures PIP3 product formed by the activity of a PI3-K. The kinase reaction is performed in a microtitre plate (e.g., a 384 well microtitre plate). The total reaction volume is approximately 20 ul per well. In the first step, each well receives 2 ul of test compound in 20% dimethylsulphoxide resulting in a 2% DMSO final concentration. Next, approximately 14.5 ul of a kinase/PIP2 mixture (diluted in 1× reaction buffer) is added per well for a final concentration of 0.25-0.3 ug/ml kinase and 10 uM PIP2. The plate is sealed and incubated for 15 minutes at room temperature. To start the reaction, 3.5 ul of ATP (diluted in 1× reaction buffer) is added per well for a final concentration of 10 uM ATP. The plate is sealed and incubated for 1 hour at room temperature. The reaction is stopped by adding 5 ul of Stop Solution per well and then 5 ul of Detection Mix is added per well. The plate is sealed, incubated for 1 hour at room temperature, and then read on an appropriate plate reader. Data is analyzed and IC50s are generated using GraphPad Prism 5.

The target in the next assay is T2, PI3K γ (p110γ) (Homo sapiens, UniProt P48736).
T2 construct: purchased Sigma
T2 sequence (P48736 whole entry): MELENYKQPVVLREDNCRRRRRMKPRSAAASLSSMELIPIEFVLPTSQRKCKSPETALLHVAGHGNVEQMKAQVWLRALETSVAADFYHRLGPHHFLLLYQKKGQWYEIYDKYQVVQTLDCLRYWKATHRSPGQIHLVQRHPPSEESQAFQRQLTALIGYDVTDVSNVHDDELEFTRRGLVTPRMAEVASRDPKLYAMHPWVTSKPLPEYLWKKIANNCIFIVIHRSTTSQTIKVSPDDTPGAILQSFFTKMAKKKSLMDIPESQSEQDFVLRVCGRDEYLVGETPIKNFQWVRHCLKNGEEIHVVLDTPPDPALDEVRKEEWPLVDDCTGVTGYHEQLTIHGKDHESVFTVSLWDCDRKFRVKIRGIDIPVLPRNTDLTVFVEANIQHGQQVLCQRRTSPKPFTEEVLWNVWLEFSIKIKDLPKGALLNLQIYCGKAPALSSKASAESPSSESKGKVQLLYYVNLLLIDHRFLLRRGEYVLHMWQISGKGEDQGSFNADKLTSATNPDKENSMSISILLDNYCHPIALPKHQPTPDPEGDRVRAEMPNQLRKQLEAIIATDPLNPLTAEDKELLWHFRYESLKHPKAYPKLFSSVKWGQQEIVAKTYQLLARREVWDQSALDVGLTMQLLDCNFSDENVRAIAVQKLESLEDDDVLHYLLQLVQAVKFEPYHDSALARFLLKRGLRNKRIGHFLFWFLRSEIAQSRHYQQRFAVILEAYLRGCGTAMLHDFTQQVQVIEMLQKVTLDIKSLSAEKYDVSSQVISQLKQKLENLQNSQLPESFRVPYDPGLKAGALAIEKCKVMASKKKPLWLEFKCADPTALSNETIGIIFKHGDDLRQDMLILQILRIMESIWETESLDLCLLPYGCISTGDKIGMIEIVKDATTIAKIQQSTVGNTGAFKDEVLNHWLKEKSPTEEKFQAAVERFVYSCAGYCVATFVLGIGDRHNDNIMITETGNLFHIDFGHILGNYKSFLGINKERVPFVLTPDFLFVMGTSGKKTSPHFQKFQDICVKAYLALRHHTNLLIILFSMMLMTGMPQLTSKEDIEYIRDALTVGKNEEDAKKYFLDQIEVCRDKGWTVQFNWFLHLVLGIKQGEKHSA
Nature of the assay: PI3K γ (p110γ) inhibition assay. It is filed as biochemical. The procedure:
as §1, with “Class I PI3-Ks can be either purchased (p110α/p85α, p110β/p85α, p110δ/p85α from Upstate, and p110γ from Sigma) or expressed as previously described (Knight at al., 2004). IC50” for “IC50”, “quantitated. For each compound, kinase activity is measured at 10-12 inhibitor concentrations representing two-fold dilutions from the highest concentration tested (typically, 200 μM).” for “quantitated.”
as §2

For the next assay, the target named is T3, mTOR (Homo sapiens, UniProt P42345).
T3 construct: purchased Invitrogen
Put plainly: mTOR inhibition assay. It is filed as biochemical. The procedure:
The compounds described herein can be tested against recombinant mTOR (Invitrogen) in an assay containing 50 mM HEPES, pH 7.5, 1 mM EGTA, 10 mM MgCl2, 2.5 mM, 0.01% Tween, 10 μM ATP (2.5 μCi of […]), and 3 μg/mL BSA. Rat recombinant PHAS-1/4EBP1 (Calbiochem; 2 mg/mL) is used as a substrate. Reactions are terminated by spotting onto nitrocellulose, which is washed with 1M NaCl/1% phosphoric acid (approximately 6 times, 5-10 minutes each). Sheets are dried and the transferred radioactivity quantitated by phosphorimaging.
Other kits or systems for assaying mTOR activity are commercially avaiable. For instance, one can use Invitrogen's LanthaScreen™ Kinase assay to test the inhibitors of mTOR disclosed herein. This assay is a time resolved FRET platform that measures the phosphorylation of GFP labeled 4EBP1 by mTOR kinase. The kinase reaction is performed in a white 384 well microtitre plate. The total reaction volume is 20 ul per well and the reaction buffer composition is 50 mM HEPES pH7.5, 0.01% Polysorbate 20, 1 mM EGTA, 10 mM MnCl2, and 2 mM DTT. In the first step, each well receives 2 ul of test compound in 20% dimethylsulphoxide resulting in a 2% DMSO final concentration. Next, 8 ul of mTOR diluted in reaction buffer is added per well for a 60 ng/ml final concentration. To start the reaction, 10 ul of an ATP/GFP-4EBP1 mixture (diluted in reaction buffer) is added per well for a final concentration of 10 uM ATP and 0.5 uM GFP-4EBP1. The plate is sealed and incubated for 1 hour at room temperature. The reaction is stopped by adding 10 ul per well of a Tb-anti-pT46 4EBP1 antibody/EDTA mixture (diluted in TR-FRET buffer) for a final concentration of 1.3 nM antibody and 6.7 mM EDTA. The plate is sealed, incubated for 1 hour at room temperature, and then read on a plate reader set up for LanthaScreen™ TR-FRET. Data is analyzed and IC50s are generated using GraphPad Prism 5.

The target of a further assay is T4, PI3K α (p110α/p85α) (Homo sapiens, UniProt P42336).
T4 construct: purchased Upstate
T4 sequence (P42336 whole entry): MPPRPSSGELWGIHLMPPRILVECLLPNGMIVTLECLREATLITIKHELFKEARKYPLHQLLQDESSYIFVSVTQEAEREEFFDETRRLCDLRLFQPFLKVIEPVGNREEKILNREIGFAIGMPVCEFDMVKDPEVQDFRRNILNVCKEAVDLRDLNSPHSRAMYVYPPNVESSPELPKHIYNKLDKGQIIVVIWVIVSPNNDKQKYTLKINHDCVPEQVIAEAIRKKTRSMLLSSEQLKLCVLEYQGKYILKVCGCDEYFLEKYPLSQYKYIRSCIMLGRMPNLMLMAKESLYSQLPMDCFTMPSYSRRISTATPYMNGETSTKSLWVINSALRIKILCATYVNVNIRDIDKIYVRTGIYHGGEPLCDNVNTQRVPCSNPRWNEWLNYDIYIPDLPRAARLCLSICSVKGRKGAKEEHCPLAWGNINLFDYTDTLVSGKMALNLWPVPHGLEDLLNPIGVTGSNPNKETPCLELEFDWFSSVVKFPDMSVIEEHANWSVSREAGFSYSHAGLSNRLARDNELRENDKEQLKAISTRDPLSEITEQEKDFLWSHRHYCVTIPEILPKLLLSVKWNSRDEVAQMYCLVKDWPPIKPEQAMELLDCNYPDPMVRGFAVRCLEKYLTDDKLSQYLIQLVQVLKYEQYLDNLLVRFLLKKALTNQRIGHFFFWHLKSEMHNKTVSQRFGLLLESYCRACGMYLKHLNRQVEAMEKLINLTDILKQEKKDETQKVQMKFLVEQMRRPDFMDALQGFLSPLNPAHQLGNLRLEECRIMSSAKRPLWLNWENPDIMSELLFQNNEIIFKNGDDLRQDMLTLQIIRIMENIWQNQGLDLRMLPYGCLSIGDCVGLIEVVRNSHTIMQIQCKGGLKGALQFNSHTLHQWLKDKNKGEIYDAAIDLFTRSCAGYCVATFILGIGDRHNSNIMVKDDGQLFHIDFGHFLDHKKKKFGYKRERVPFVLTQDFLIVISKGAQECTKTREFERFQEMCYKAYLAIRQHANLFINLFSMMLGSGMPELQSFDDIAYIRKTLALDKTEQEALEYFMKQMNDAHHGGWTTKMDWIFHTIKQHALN
T4 sequence (P27986 whole entry partner): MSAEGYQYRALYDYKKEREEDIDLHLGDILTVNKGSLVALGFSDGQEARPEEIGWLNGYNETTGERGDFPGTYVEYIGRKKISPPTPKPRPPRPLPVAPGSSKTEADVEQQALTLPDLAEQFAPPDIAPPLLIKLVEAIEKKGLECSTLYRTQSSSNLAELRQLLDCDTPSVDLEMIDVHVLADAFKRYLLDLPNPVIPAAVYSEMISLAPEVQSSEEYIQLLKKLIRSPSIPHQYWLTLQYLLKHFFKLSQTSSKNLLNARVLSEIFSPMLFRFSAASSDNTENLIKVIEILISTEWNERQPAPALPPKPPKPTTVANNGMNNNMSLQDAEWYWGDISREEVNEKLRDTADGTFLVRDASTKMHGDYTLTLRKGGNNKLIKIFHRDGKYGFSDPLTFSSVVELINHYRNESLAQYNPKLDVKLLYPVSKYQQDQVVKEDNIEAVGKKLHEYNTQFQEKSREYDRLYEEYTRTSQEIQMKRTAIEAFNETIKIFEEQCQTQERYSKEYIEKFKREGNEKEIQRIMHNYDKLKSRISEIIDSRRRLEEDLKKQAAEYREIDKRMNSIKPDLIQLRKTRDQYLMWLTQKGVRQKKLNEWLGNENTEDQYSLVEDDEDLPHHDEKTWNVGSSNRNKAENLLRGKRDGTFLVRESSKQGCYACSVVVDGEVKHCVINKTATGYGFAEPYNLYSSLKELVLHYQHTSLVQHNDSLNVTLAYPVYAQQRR
Put plainly: PI3K α (p110α/p85α) inhibition assay. It is filed as biochemical. Here is the method:
as §1, with “Class I PI3-Ks can be either purchased (p110α/p85α, p110β/p85α, p110δ/p85α from Upstate, and p110γ from Sigma) or expressed as previously described (Knight at al., 2004). IC50” for “IC50”, “quantitated. For each compound, kinase activity is measured at 10-12 inhibitor concentrations representing two-fold dilutions from the highest concentration tested (typically, 200 μM).” for “quantitated.”
as §2

Another assay addresses T5, PI3K β (p110β/p85α) (Homo sapiens, UniProt P42338).
T5 construct: purchased Upstate
Put plainly: PI3K β (p110β/p85α) inhibition assay. It is filed as biochemical. Here is the method: as §1, with “Class I PI3-Ks can be either purchased (p110α/p85α, p110β/p85α, p110δ/p85α from Upstate, and p110γ from Sigma) or expressed as previously described (Knight at al., 2004). IC50” for “IC50”, “quantitated. For each compound, kinase activity is measured at 10-12 inhibitor concentrations representing two-fold dilutions from the highest concentration tested (typically, 200 μM).” for “quantitated.”
as §2

The subject of a further assay is PC-3. Nature of the assay: Tumor cell line proliferation assay (Alamar Blue), PC-3. Particulars: Homo sapiens; PC-3 cells. It is filed as cell-based. Here is the method: The ability of one or more subject compounds to inhibit tumor cell line proliferation is determined according to standard procedures known in the art. For instance, an in vitro cellular proliferation assay can be performed to measure the metabolic activity of live cells. The assay is performed in a 96 well microtiter plate using Alamar Blue reduction. Human tumor cell lines are obtained from ATCC (e.g., MCF7, U-87 MG, MDA-MB-468, PC-3), grown to confluency in T75 flasks, trypsinized with 0.25% trypsin, washed one time with Tumor Cell Media (DMEM+10% FBS), and plated in 90 ul at 5,000 cells/well in Tumor Cell Media. A compound disclosed herein is diluted in Tumor Cell Media and added in a 10 ul volume. Plates are incubated for 72 hours at 37 C and 5% CO2. A volume of 10 uL of Alamar Blue reagent is added to each well and plates are incubated for 3 hours at 37 C and 5% CO2. Alamar Blue fluoresce is read at 560Ex/590Em, and IC50 values are calculated using GraphPad Prism 5.

T5 sequence (P42338 whole entry): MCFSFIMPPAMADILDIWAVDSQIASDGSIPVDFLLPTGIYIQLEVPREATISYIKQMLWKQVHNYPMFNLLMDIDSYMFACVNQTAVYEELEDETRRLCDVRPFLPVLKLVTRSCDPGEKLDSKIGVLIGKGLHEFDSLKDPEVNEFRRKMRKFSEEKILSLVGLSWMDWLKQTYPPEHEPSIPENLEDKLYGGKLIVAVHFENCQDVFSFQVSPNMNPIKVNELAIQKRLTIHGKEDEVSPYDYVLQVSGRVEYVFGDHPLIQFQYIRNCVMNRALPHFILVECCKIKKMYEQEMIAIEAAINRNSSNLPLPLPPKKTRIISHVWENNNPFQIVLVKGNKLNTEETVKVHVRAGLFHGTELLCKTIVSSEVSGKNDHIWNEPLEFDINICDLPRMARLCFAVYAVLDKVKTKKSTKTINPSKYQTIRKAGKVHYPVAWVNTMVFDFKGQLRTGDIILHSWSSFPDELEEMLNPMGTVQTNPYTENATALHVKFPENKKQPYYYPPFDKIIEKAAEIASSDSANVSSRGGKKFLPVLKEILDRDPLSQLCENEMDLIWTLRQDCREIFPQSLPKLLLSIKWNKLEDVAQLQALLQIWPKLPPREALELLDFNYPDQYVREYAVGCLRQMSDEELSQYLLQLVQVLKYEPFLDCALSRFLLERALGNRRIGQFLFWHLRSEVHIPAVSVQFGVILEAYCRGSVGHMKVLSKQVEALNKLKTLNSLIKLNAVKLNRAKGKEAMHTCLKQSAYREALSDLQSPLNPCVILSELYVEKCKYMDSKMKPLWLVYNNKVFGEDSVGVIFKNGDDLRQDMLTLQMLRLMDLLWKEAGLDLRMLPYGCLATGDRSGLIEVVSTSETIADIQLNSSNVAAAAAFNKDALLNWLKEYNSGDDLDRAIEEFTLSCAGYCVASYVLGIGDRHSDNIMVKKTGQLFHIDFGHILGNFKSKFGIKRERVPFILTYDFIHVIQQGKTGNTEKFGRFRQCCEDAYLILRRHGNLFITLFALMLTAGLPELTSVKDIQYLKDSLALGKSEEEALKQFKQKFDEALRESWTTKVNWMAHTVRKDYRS
T5 sequence (P27986 whole entry partner): as the sequence (P27986 whole entry partner) above
T1 sequence (O00329 whole entry): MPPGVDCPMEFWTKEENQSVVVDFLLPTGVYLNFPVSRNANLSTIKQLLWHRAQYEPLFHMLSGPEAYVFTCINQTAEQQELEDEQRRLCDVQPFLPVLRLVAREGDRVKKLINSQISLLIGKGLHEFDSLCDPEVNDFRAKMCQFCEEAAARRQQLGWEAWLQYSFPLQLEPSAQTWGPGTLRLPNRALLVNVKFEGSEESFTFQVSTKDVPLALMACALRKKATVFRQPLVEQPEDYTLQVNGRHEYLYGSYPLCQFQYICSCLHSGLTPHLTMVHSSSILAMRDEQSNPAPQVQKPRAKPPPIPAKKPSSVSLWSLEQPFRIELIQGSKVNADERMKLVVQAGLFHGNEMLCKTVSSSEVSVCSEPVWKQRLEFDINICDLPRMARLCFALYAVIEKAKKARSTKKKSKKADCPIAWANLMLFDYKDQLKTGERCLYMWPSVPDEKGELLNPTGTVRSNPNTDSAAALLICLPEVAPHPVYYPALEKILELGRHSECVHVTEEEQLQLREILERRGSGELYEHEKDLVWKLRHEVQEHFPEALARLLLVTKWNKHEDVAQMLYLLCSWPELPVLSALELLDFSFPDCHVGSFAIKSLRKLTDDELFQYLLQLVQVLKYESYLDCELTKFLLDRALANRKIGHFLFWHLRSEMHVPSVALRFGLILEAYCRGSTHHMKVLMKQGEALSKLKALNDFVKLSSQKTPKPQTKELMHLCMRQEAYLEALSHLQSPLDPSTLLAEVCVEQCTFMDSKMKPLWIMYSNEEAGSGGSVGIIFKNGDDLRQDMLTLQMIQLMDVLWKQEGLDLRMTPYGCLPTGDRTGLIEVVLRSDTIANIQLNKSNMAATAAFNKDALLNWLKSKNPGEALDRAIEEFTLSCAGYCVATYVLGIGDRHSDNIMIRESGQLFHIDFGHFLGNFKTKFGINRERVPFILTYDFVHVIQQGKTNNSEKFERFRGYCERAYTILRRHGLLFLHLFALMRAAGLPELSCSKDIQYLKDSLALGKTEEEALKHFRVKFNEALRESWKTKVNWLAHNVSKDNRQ
T1 sequence (P27986 whole entry partner): as the sequence (P27986 whole entry partner) above

`Cc1nc(Nc2cccnc2)nc2ccc(-c3cccc(O)c3)cc12` [Compound 6]: the IC50 – broadly, the point on the concentration scale where inhibition reaches its midpoint – is below 100 nM at PI3K δ (p110δ/p85α) (read-out: PI3K δ IC50); below 100 nM at PI3K γ (p110γ); above 1000 nM on mTOR; below 100 nM on PI3K α (p110α/p85α); above 1000 nM at PI3K β (p110β/p85α). In addition, in the assay on PC-3, the EC50 – broadly, the concentration needed to bring the measured effect to its halfway point – is at most 50000 nM.
For `CNc1nc(C)c2cc(-c3ccc(O)c(F)c3)ccc2n1` [Compound 11], the results for the IC50 on mTOR and on PI3K α (p110α/p85α) were above 1000 nM and below 1000 nM, respectively. The EC50 in the assay on PC-3 was at most 50000 nM.
`Nc1ncc2cc(-c3cccc(O)c3)ccc2n1` [Compound 3]: the IC50 against mTOR was above 1000 nM; on PI3K α (p110α/p85α), below 500 nM. For the same compound, the EC50 with PC-3 was at most 50000 nM.
As to `CNc1nc(C)c2cc(-c3cnc4[nH]ccc4c3)ccc2n1` [Compound 2], the IC50 on PI3K δ (p110δ/p85α) (read-out: PI3K δ IC50) is above 1000 nM; against PI3K γ (p110γ), below 500 nM; at mTOR it was above 1000 nM; on PI3K α (p110α/p85α) it was below 1000 nM; at PI3K β (p110β/p85α), above 1000 nM. The compound also had an EC50 in the assay on PC-3 of at most 50000 nM.
In the case of `CNc1nc(C)c2cc(-c3cc(O)cc(F)c3)ccc2n1` [Compound 8], the IC50 was below 100 nM against PI3K δ (p110δ/p85α); below 100 nM on PI3K γ (p110γ); above 1000 nM on mTOR; below 500 nM on PI3K α (p110α/p85α); below 1000 nM against PI3K β (p110β/p85α). The EC50 with PC-3 was at most 20000 nM.
In the case of `CNc1nc(C)c2cc(-c3ccc(O)c(Cl)c3)ccc2n1` [Compound 10], the results for the IC50 against mTOR and at PI3K α (p110α/p85α) were above 1000 nM and below 1000 nM, respectively. The compound further returned an EC50 in the assay on PC-3 of at most 20000 nM.
For `Cc1nc(N)nc2ccc(-c3cccc(O)c3)cc12` [Compound 4], the IC50 was below 100 nM on PI3K δ (p110δ/p85α) (read-out: PI3K δ IC50); below 100 nM on PI3K γ (p110γ); above 1000 nM at mTOR; below 500 nM against PI3K α (p110α/p85α); below 500 nM against PI3K β (p110β/p85α). This compound also showed an EC50 in the assay with PC-3 of at most 20000 nM.
For the compound `CNc1nc(C)c2cc(-c3ccc(F)c(O)c3)ccc2n1` [Compound 9], the IC50 at mTOR was above 1000 nM; against PI3K α (p110α/p85α), below 1000 nM. In addition, the EC50 in the assay on PC-3 was at most 20000 nM.
On to `CNc1nc(C)c2cc(-c3cccc(O)c3)ccc2n1` [Compound 1], for which the IC50 at PI3K δ (p110δ/p85α) (read-out: PI3K δ IC50) is below 500 nM; against PI3K γ (p110γ), below 100 nM; at mTOR, above 1000 nM; against PI3K α (p110α/p85α), below 500 nM; against PI3K β (p110β/p85α) it was above 1000 nM. Besides, the EC50 in the assay on PC-3 is at most 50000 nM.
Regarding `Cc1nc(Nc2cccnc2)nc2ccc(-c3cc(O)cc(F)c3)cc12` [Compound 7], the IC50 at PI3K δ (p110δ/p85α) (read-out: PI3K δ IC50) is below 100 nM; at PI3K γ (p110γ) it was below 100 nM; at mTOR, above 1000 nM; on PI3K α (p110α/p85α) it was below 100 nM; against PI3K β (p110β/p85α), above 1000 nM. The compound also showed an EC50 in the assay on PC-3 of at most 20000 nM.
Turning to `Cc1nc(N)nc2ccc(-c3cnc4[nH]ccc4c3)cc12` [Compound 5], the IC50 is above 1000 nM at mTOR and below 1000 nM on PI3K α (p110α/p85α). This compound also showed an EC50 in the assay with PC-3 of at most 50000 nM.
